Experimental data: US6846823B2, “Method of treating lower urinary tract disorders” (Dynogen Pharmaceuticals, Inc., priority 2003, dated 2005)

Assays:
[1] = preclinical and clinical studies, cited from earlier work
[2] = tested on: bladder capacity during acetic acid irritation; test: Dilute Acetic Acid Model-Cats, cystometry; type: in vivo, cat
Description: Six alpha-chloralose anesthetized (50-100 mg/kg) normal female cats (2.5-3.5 kg; Harlan) were utilized in this study.
MCI-225 was dissolved in 5% methylcellulose in water at 3.0, 10.0 or 30 mg/ml Animals were dosed by volume of injection=body weight in kg.
Female cats (2.5-3.5 kg; Harlan) had their food removed the night before the study. The following morning, the cats were anesthetized with isoflurane and prepped for surgery using aseptic technique. Polyethylene catheters were surgically placed to permit the measurement of bladder pressure, urethral pressure, arterial pressure, respiratory rate as well as for the delivery of drugs. Fine wire electrodes were implanted alongside the external urethral anal sphincter. Following surgery, the cats were slowly switched from the gas anesthetic isoflurane (2-3.5%) to alpha-chloralose (50-100 mg/kg). During control cystometry, saline was slowly infused into the bladder (0.5-1.0 ml/min) for 1 hour. The control cystometry was followed by 0.5% acetic acid in saline for the duration of the experiment. After assessing the cystometric variables under these baseline conditions, the effects of MCI-225 on bladder capacity were determined via a 3 point dose response protocol.
Data was analyzed using a non-parametric One-Way ANOVA (Friedman Test) with the post-hoc Dunn's multiple comparison t test. P<0.05 was considered significant.

[3] = molecular target: T1, Monoamine Oxidase-A (MAO-A) (Homo sapiens, UniProt P21397); conditions: cited from earlier work
T1 sequence (P21397 1-527): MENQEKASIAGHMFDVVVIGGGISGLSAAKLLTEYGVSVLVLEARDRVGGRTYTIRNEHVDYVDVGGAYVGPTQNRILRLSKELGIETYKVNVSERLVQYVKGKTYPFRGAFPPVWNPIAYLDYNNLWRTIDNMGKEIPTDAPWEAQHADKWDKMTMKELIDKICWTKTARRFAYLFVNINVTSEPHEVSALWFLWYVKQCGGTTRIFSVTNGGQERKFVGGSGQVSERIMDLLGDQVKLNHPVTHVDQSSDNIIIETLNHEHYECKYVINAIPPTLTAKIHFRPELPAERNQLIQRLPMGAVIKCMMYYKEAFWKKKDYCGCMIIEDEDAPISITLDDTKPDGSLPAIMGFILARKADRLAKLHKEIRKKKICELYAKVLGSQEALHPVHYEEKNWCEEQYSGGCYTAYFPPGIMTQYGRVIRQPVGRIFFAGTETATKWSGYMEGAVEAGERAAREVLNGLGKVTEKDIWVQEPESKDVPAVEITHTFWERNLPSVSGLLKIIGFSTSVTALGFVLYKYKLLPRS

5-HT3 receptor = molecular target: T2, 5-HT3 receptor (Mus musculus, UniProt P23979); conditions: radioligand binding; read-out: Ki, affinity for the 5-HT3 receptor; cited from earlier work
T2 construct: host or cells: N1E-115 mouse neuroblastoma cells
T2 sequence (P23979 24-489): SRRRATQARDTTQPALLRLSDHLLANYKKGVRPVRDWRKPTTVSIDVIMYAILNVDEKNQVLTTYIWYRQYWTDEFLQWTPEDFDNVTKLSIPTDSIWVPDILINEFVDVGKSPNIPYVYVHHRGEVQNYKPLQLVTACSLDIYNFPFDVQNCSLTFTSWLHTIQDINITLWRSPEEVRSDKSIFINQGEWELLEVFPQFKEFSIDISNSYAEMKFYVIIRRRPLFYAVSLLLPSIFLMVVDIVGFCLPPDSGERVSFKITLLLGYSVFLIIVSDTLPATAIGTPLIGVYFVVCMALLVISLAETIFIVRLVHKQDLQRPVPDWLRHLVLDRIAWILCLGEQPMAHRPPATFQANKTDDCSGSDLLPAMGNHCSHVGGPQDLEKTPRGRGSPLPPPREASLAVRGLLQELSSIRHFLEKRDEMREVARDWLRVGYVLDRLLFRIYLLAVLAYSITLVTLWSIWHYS

[4] = tested on: bladder capacity during acetic acid irritation; test: Dilute Acetic Acid Model-rats, filling cystometry; type: in vivo, rat; conditions: for bladder capacity vs AA/Veh 3: rats, intraduodenal
Source text: Female rats (250-275 g BW, n=8) were anesthetized with urethane (1.2 g/kg) and a saline-filled catheter (PE-50) was inserted into the proximal duodenum for intraduodenal drug administration. A flared-tipped PE-50 catheter was inserted into the bladder dome, via a midline lower abdominal incision, for bladder filling and pressure recording and secured by ligation. The abdominal cavity was moistened with saline and closed by covering with a thin plastic sheet in order to maintain access to the bladder for emptying purposes. Fine silver or stainless steel wire electrodes were inserted into the external urethral sphincter (EUS) percutaneously for electromyography (EMG). Animals were positioned on a heating pad which maintained body temperature at 37° C.
Saline and all subsequent infusates were continuously infused at a rate of about 0.055 ml/min via the bladder filling catheter for about 60 minutes to obtain a baseline of lower urinary tract activity (continuous cystometry; CMG). […] Bladder capacity (ml) was calculated as the flow rate of the bladder filling solution (ml/min) multiplied by the elapsed time between commencement of bladder filling and occurrence of bladder contraction (min).
Following the control period, a 0.25% acetic acid solution in saline (AA) was infused into the bladder to induce bladder irritation. […] Following injection of the third vehicle control, bladder capacity was again measured, as described above but using AA to fill the bladder. […] Bladder capacity was measured as described above using AA to fill the bladder, at 20 and 50 minutes following each subsequent drug treatment.
Bladder capacity was determined for each treatment regimen as described above (flow rate of the bladder filling solution (ml/min) multiplied by the elapsed time between commencement of bladder filling and occurrence of bladder contraction (min)) and converted to % Bladder Capacity normalized to the last vehicle measurement of the AA/Veh 3 treatment group. Data were then analyzed by non-parametric ANOVA for repeated measures (Friedman Test) with Dunn's Multiple Comparison test. […]

[5] = molecular target: T3, Monoamine Oxidase-B (MAO-B) (Homo sapiens, UniProt P27338); conditions: cited from earlier work
T3 sequence (P27338 1-520): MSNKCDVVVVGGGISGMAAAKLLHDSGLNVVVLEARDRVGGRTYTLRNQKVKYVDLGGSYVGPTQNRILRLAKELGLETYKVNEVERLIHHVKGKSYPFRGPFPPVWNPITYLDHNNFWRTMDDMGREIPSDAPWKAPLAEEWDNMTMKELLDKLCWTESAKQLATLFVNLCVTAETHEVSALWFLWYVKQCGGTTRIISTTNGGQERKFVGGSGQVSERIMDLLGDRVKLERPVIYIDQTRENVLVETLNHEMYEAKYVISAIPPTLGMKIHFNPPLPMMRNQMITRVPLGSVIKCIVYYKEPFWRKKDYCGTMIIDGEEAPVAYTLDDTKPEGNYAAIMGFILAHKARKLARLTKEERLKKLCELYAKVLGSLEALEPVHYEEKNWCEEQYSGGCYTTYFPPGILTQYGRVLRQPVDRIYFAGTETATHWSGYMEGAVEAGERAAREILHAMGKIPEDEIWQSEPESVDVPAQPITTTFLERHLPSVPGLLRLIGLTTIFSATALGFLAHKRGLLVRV

[6] = tested on: α1, α2, β1, β2, 5-HT1, 5-HT1A, 5-HT1C, 5-HT2, 5-HT4, 5-HT6, 5-HT7, D1, D2, Muscarinic, M1, M2, M3, Nicotonic, H1, H2, GABA-A, GABA-B, BZP, Opiate …; conditions: all receptors of the panel other than 5-HT3; read-out: IC50, binding to the additional receptors tested; cited from earlier work
muscarinic receptors = conditions: cited from earlier work

| SMILES | blood levels of gabapentin after XP13512 ([1]; broad range of oral doses) | absorption from the large intestine [1] | bladder capacity following acetic acid irritation ([2]; cats n=6, 3 point dose response 3, 10, 30 mg/kg, P<0.0103) | bladder capacity, individual dose significance ([2]; cats, 30 mg/kg, P<0.05) | inhibition of MAO-A activity [3] | Ki (5-HT3 receptor) | bladder capacity (% normalized to AA/Veh 3) ([4]; rats n=8, intraduodenal, cumulative 3-30 mg/kg, p=0.0005 Friedman test) | bladder capacity vs AA/Veh 3 ([4]; 10 mg/kg, p<0.05 Dunn's test) | bladder capacity vs AA/Veh 3 ([4]; 30 mg/kg, p<0.001 Dunn's test) | inhibition of MAO-B activity [5] | IC50 [6] | anticholinergic activity (muscarinic receptors) |
| --- | --- | --- | --- | --- | --- | --- | --- | --- | --- | --- | --- | --- |
| CC(OC(=O)NCC1(CC(=O)O)CCCCC1)OC(=O)C(C)C (stereo not drawn) [XP13512] | dose proportional blood levels of gabapentin | absorbed efficiently from the large intestine |  |  |  |  |  |  |  |  |  |  |
| Cc1cc2c(-c3ccccc3F)nc(N3CCNCC3)nc2s1 [MCI-225, 4-(2-fluorophenyl)-6-methyl-2-(1-piperazinyl)thieno[2,3-d]pyrimidine] |  |  | significant dose-dependent increase in bladder capacity | individual dose significance attained | did not inhibit | < 100 nM | dose-dependent increase in bladder capacity | significantly higher than AA/Veh 3 | significantly higher than AA/Veh 3 | did not inhibit | > 1000 nM | substantially no anticholinergic activity |
